Laboratory results from patent US20230141101A1, “PDE4 INHIBITOR COMPOUND AND MEDICAL USE THEREOF” (Suzhou Longbotai Pharmaceuticals Co., Ltd., priority 2020, published 2023).

Tests used:
Type in all cases: biochemical
Conditions in all cases: 20 nM
[1] = molecular target: T1, PDE4B1 (Homo sapiens, UniProt Q07343); assay: PDE4 inhibitory activity assay (FAM-cAMP enzymatic reaction), PDE4B1
T1 construct: purchased BPS 60041
In short: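 Each isoform is incubated with test compound for 15 min at room temperature before FAM-cAMP substrate starts a 30-min reaction.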

[2] = molecular target: PDE4D2 (Homo sapiens, UniProt Q08499); assay: PDE4 inhibitory activity assay (FAM-cAMP enzymatic reaction), PDE4D2
In short: (§1)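 Human PDE4A1A, PDE4B1 or PDE4D2 preincubated with compound 15 min at room temperature, then FAM-cAMP substrate added; reaction 30 min at room temperature before stop solution and further 60 min. Fluorescence read on multilabel counter; IC50 fitted from inhibition rates.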

[3] = molecular target: T2, PDE4A1A (Homo sapiens, UniProt P27815); assay: PDE4 inhibitory activity assay (FAM-cAMP enzymatic reaction), PDE4A1A
T2 construct: purchased BPS 60040
In short: as §1

Chain of PDE4D2 (Q08499 303-809): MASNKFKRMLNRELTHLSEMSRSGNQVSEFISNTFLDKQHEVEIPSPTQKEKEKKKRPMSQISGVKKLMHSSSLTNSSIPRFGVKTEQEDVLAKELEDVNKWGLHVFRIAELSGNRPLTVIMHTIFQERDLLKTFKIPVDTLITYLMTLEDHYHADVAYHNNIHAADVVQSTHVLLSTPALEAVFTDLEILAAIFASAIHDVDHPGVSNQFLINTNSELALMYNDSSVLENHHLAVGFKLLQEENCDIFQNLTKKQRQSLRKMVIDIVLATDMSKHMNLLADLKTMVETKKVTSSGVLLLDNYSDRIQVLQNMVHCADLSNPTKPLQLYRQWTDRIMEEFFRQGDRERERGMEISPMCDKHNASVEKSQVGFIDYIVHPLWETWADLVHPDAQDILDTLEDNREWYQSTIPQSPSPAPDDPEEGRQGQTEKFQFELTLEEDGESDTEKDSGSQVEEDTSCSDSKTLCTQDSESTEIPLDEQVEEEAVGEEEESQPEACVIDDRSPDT
T1 sequence (Q07343 whole entry): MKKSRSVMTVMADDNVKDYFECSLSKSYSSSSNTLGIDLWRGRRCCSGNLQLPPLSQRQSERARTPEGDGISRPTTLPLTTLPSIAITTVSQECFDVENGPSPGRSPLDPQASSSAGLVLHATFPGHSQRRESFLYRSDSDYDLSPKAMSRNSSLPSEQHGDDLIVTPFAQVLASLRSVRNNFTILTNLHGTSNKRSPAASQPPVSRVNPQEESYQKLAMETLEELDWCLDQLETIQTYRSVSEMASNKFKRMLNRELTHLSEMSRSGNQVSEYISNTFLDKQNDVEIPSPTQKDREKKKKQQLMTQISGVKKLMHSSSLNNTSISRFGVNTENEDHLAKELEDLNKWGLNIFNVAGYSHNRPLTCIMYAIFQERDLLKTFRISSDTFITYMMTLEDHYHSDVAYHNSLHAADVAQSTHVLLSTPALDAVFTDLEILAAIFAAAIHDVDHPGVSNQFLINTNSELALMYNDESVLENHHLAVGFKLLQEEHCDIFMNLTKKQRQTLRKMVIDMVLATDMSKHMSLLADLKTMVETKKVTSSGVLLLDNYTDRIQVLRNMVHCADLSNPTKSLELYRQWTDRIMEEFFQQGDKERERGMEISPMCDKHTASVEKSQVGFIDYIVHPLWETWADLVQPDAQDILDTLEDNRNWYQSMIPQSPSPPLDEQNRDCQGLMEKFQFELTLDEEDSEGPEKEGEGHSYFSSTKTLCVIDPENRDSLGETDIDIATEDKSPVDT
T2 sequence (P27815 1-647 isoform P27815-4): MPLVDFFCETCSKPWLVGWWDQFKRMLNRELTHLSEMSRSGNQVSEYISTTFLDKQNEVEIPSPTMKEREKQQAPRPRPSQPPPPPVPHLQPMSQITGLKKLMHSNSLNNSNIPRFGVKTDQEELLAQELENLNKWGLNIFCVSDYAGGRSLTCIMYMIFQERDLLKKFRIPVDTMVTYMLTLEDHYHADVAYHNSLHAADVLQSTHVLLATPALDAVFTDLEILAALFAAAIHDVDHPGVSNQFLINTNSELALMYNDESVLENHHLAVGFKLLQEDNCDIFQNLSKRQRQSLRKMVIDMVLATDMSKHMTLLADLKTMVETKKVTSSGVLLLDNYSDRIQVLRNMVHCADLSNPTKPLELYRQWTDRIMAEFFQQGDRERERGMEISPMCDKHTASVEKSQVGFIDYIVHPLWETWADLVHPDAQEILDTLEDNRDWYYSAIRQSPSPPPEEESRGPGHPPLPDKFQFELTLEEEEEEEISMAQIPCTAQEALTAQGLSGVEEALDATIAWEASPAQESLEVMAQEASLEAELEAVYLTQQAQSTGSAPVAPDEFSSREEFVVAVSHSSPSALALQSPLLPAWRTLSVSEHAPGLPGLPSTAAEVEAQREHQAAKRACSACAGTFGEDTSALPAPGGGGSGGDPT

PDE4 B1 inhibitory effect at 20 nM [1] | PDE4 D2 inhibitory effect at 20 nM [2] | PDE4 A1 inhibitory effect at 20 nM [3] | Structure (SMILES)
− | − | − | CCOc1nc([C@H](CS(C)(=O)=O)n2c(=O)[nH]c3cc(-c4ccccc4OC)ccc32)ccc1OC [Ex. 145, (R)-1-(1-(6-ethoxy-5-methoxypyridin-2-yl)-2-(methylsulfonyl)ethyl)-5-(2-methoxyphenyl)-1H-benzo[d]imidazol-2(3H)-one]
+ | + | + | CCOc1nc(C(CS(C)(=O)=O)N2C(=O)c3csc([N+](=O)[O-])c3C2=O)ccc1OC (stereo not drawn) [Ex. 221, 5-(1-(6-ethoxy-5-methoxypyridin-2-yl)-2-(methylsulfonyl)ethyl)-1-nitro-4H-thieno[3,4-c]pyrrol-4,6(5H)-dione]
+ | + | + | CCOc1nc([C@@H](CS(C)(=O)=O)n2c(=O)n(C3CC3)c3cc(C)ccc32)ccc1OC [Ex. 209, (S)-3-cyclopropyl-1-(1-(6-ethoxy-5-methoxypyridin-2-yl)-2-(methylsulfonyl)ethyl)-5-methyl-1H-benzo[d]imidazol-2(3H)-one]

The next lines start with the compound.

Structure (SMILES) | PDE4 B1 inhibitory effect at 20 nM [1] | PDE4 D2 inhibitory effect at 20 nM [2] | PDE4 A1 inhibitory effect at 20 nM [3]
CCOc1nc([C@@H](CS(C)(=O)=O)n2c(=O)n(CC(F)(F)F)c3c(C)c(-c4ccccc4F)cnc32)ccc1OC [Ex. 51, (S)-3-(1-(6-ethoxy-5-methoxypyridin-2-yl)-2-(methylsulfonyl)ethyl)-6-(2-fluorophenyl)-7-methyl-1-(2,2,2-trifluoroethyl)-1H-imidazo[4,5-b]pyridin-2(3H)-one] | + | + | +
CCOc1nc([C@@H](CS(C)(=O)=O)n2c(=O)n(CC(F)F)c3c(C)c(-c4ccccc4F)cnc32)ccc1OC(C)C [Ex. 69, (S)-1-(2,2-difluoroethyl)-3-(1-(6-ethoxy-5-isopropoxypyridin-2-yl)-2-(methylsulfonyl)ethyl)-6-(2-fluorophenyl)-7-methyl-1H-imidazo[4,5-b]pyridin-2(3H)-one] | + | + | +
CCOc1nc([C@@H](CS(C)(=O)=O)n2c(=O)n(CC)c3cc(-c4ccccn4)cnc32)ccc1OC [Ex. 124, (S)-3-(1-(6-ethoxy-5-methoxypyridin-2-yl)-2-(methylsulfonyl)ethyl)-1-ethyl-6-(pyridin-2-yl)-1H-imidazo[4,5-b]pyridin-2(3H)-one] | + | + | +
CCOc1nc([C@@H](CS(C)(=O)=O)n2c(=O)n(C)c3c(C)c(-c4ccccc4C)cnc32)ccc1OC(F)F [Ex. 68, (S)-3-(1-(5-(difluoromethoxy)-6-ethoxypyridin-2-yl)-2-(methylsulfonyl)ethyl)-1,7-dimethyl-6-(o-methylphenyl)-1H-imidazo[4,5-b]pyridin-2(3H)-one] | + | + | +
CCOc1nc([C@@H](CS(C)(=O)=O)n2c(=O)[nH]c3c(C)c(-c4ccc(C)cc4F)cnc32)ccc1OC [Ex. 40, (S)-6-(2-fluoro-4-methylphenyl)-3-(1-(6-ethoxy-5-methoxypyridin-2-yl)-2-(methylsulfonyl)ethyl)-7-methyl-1H-imidazo[4,5-b]pyridin-2(3H)-one] | + | + | +
CCOc1nc([C@@H](CS(C)(=O)=O)n2c(=O)n(C)c3cc(-c4ccccc4)ccc32)ccc1OC [Ex. 131, (S)-1-(1-(6-ethoxy-5-methoxypyridin-2-yl)-2-(methylsulfonyl)ethyl)-5-phenyl-3-methyl-1H-benzo[d]imidazol-2(3H)-one] | + | + | +
